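Test compounds were applied to cells in 96-well plates for 48 hours at 5 doses. GI50 is the concentration that inhibits growth by half.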 Activity calls are given as the source filed them. No stated cut-off is given here; in the data, active = GI50 up to about 1.1 µM and inactive = higher.
Legend:
Test in all cases: growth of human tumour cells (NCI), 48 h
[1] = tested on: A549
[2] = tested on: NCI-H460
[3] = tested on: SK-MEL-2
[4] = tested on: CCRF-CEM
[5] = tested on: SK-MEL-5
[6] = tested on: COLO 205
[7] = tested on: SK-OV-3
[8] = tested on: HL-60
[9] = tested on: EKVX
[10] = tested on: SK-MEL-28
[11] = tested on: LXFL 529
[12] = tested on: K562
[13] = tested on: ACHN
[14] = tested on: U-251
[15] = tested on: SF-295
[16] = tested on: HOP-92
[17] = tested on: MDA-MB-231
[18] = tested on: Hs-578T
[19] = tested on: MDA-N
[20] = tested on: BT-549

SMILES | GI50 [1] | GI50 [2] | GI50 [3] | GI50 [4] | GI50 [5] | GI50 [6] | GI50 [7] | GI50 [8] | GI50 [9] | GI50 [10] | GI50 [11] | GI50 [12] | GI50 [13] | GI50 [14] | GI50 [15] | GI50 [16] | GI50 [17] | GI50 [18] | GI50 [19] | GI50 [20]
Cc1nc2ccccc2c(=O)n1-c1ccccc1I | > 100 µM (inactive) | > 100 µM (inactive) | > 100 µM (inactive) | > 100 µM (inactive) | > 100 µM (inactive) | > 100 µM (inactive) | > 100 µM (inactive) | > 100 µM (inactive) | 70.6 µM (inactive) | > 100 µM (inactive) | 90.4 µM (inactive) | 96.4 µM (inactive) | > 100 µM (inactive) | > 100 µM (inactive) | > 100 µM (inactive) |  |  |  |  | 
CCO/C([O-])=C(\C(=O)c1ccc([N+](=O)[O-])cc1)[n+]1c(C)n(C)c2ccccc21 | > 100 µM (inactive) | > 100 µM (inactive) | > 100 µM (inactive) | > 100 µM (inactive) | > 100 µM (inactive) | > 100 µM (inactive) | > 100 µM (inactive) | > 100 µM (inactive) | > 100 µM (inactive) | > 100 µM (inactive) | > 100 µM (inactive) | > 100 µM (inactive) |  | > 100 µM (inactive) | > 100 µM (inactive) |  |  |  |  | 
Cc1n[nH]c(=S)n(C)c1=S | > 100 µM (inactive) | > 100 µM (inactive) | > 100 µM (inactive) | > 100 µM (inactive) |  | > 100 µM (inactive) | > 100 µM (inactive) |  | 56.1 µM (inactive) | > 100 µM (inactive) | > 100 µM (inactive) | > 100 µM (inactive) | > 100 µM (inactive) | > 100 µM (inactive) | > 100 µM (inactive) | 91.2 µM (inactive) |  |  |  | 
CN(C)C(=S)/N=c1\ssc(=S)n1Cc1ccncc1 | 33.3 µM (inactive) | 13.8 µM (inactive) | 17.2 µM (inactive) | 5.81 µM (inactive) | 4.78 µM (inactive) | > 100 µM (inactive) | 25.2 µM (inactive) |  | 22.8 µM (inactive) | 35.1 µM (inactive) | 16.3 µM (inactive) | 18.3 µM (inactive) | 29.8 µM (inactive) | 14.7 µM (inactive) | 29.8 µM (inactive) |  |  |  |  | 
CN(C)CCC(/C=C/c1ccccc1)=N\Nc1ccc(Cl)cc1Cl | 15.6 µM (inactive) | 13.8 µM (inactive) | 13.3 µM (inactive) | 10.5 µM (inactive) | 13.4 µM (inactive) | 14.6 µM (inactive) | 10.8 µM (inactive) | 2.29 µM (inactive) | 15 µM (inactive) | 14.3 µM (inactive) | 10.9 µM (inactive) | 13.1 µM (inactive) | 12.7 µM (inactive) | 11.6 µM (inactive) | 16.6 µM (inactive) |  |  |  |  | 
CC1CC[C@]2(C(=O)O)CCC3(C)C(=CCC4[C@@]5(C)CC[C@H](OS(=O)(=O)c6ccccc6)C(C)(C)C5CC[C@]43C)[C@@H]2[C@H]1C (some centres not stated) | 36.6 µM (inactive) | > 100 µM (inactive) | 48.9 µM (inactive) | 78 µM (inactive) | > 100 µM (inactive) | 38.1 µM (inactive) | > 100 µM (inactive) |  | 55.1 µM (inactive) | > 100 µM (inactive) | 69.8 µM (inactive) | 51.4 µM (inactive) | 52.2 µM (inactive) | 83.2 µM (inactive) | > 100 µM (inactive) | > 100 µM (inactive) |  |  |  | 
CCCCc1c2c([n+]([O-])c3c1CCCC3)CCCC2 | > 100 µM (inactive) | > 100 µM (inactive) |  | 19.3 µM (inactive) | 28.4 µM (inactive) | > 100 µM (inactive) | 98.4 µM (inactive) | 38.1 µM (inactive) | > 100 µM (inactive) | 32.8 µM (inactive) | > 100 µM (inactive) | 3.56 µM (inactive) | 5.12 µM (inactive) | > 100 µM (inactive) | 28 µM (inactive) |  |  |  |  | 
O=C(NC1C2CC3CC(C2)CC1C3)/C(Cl)=C1/Sc2ccccc2NC1=O (configuration not stated) | > 100 µM (inactive) | > 89.9 µM (inactive) |  | 29.5 µM (inactive) | > 100 µM (inactive) | > 100 µM (inactive) |  | 62.2 µM (inactive) | > 100 µM (inactive) | > 100 µM (inactive) | 42.5 µM (inactive) | 29.6 µM (inactive) | > 95.9 µM (inactive) | > 100 µM (inactive) | > 100 µM (inactive) | > 76.4 µM (inactive) |  |  |  | 
CC1CNC(c2ccc(CN3CCC(C4CCN(Cc5ccc(C6=NC(C)CN6)cc5)CC4)CC3)cc2)=N1 (configuration not stated) | 20.6 µM (inactive) | 18.5 µM (inactive) | 19.1 µM (inactive) | 13.9 µM (inactive) | 36.2 µM (inactive) | 18.6 µM (inactive) | 16.3 µM (inactive) | 36.1 µM (inactive) | 21.7 µM (inactive) | 32.6 µM (inactive) |  | 16.7 µM (inactive) | 26.5 µM (inactive) | 16 µM (inactive) | 17 µM (inactive) | 75.7 µM (inactive) | 17.7 µM (inactive) | 18.6 µM (inactive) | 21.3 µM (inactive) | > 100 µM (inactive)
COc1ccc(N2C(=O)C3CC(c4ccc(Br)cc4)c4c([nH]c5ccccc45)C3C2=O)cc1 (configuration not stated) | 2.71 µM (inactive) | 4.92 µM (inactive) | 60.7 µM (inactive) | 8.59 µM (inactive) | 16.5 µM (inactive) | 9.02 µM (inactive) |  | 12.8 µM (inactive) | 16.9 µM (inactive) | 11.5 µM (inactive) | 4.07 µM (inactive) | 5.37 µM (inactive) | 4.51 µM (inactive) |  | 10.8 µM (inactive) | 12.3 µM (inactive) |  |  |  | 
c1ccc(CNc2c3c(nc4ccccc24)CCC3)cc1 | 15.1 µM (inactive) | 10.6 µM (inactive) | 13.8 µM (inactive) | 3.79 µM (inactive) | 11.7 µM (inactive) | 10.4 µM (inactive) | 15.4 µM (inactive) | 0.0303 µM (active) | 12.1 µM (inactive) | 11.8 µM (inactive) |  | 5.58 µM (inactive) | 17.5 µM (inactive) | 14.9 µM (inactive) | 6.84 µM (inactive) | 10.4 µM (inactive) | 12.9 µM (inactive) | 27.2 µM (inactive) | 14.7 µM (inactive) | 17.9 µM (inactive)
Cc1cc2nc3c(C(OC4OC(CO)C(O)C(O)C4O)C(O)CO)nn(-c4ccc(F)cc4)c3nc2cc1C (configuration not stated) |  | > 100 µM (inactive) |  | > 100 µM (inactive) |  |  | > 100 µM (inactive) |  | > 100 µM (inactive) | > 100 µM (inactive) | > 100 µM (inactive) | > 100 µM (inactive) | > 100 µM (inactive) | > 100 µM (inactive) | > 100 µM (inactive) |  |  |  |  | 
COC(=O)C1=C(C)NC(C)=C(C(=O)OC)C1c1ccc(NO)cc1 | 18.2 µM (inactive) | 14.9 µM (inactive) | 17.1 µM (inactive) | 0.897 µM (active) | 15.4 µM (inactive) | 12.5 µM (inactive) | 23.4 µM (inactive) | 1.53 µM (inactive) | 19.5 µM (inactive) | 17.5 µM (inactive) |  | 1.86 µM (inactive) | 12.6 µM (inactive) | 15.9 µM (inactive) | 17 µM (inactive) | 2.68 µM (inactive) | 12.8 µM (inactive) | 10.8 µM (inactive) | 12.2 µM (inactive) | 13.2 µM (inactive)
O=C1CC2SC(COCc3ccccc3)(CCN2Cc2ccccc2)C1 (configuration not stated) | 51.2 µM (inactive) | 54.6 µM (inactive) | > 100 µM (inactive) | 65 µM (inactive) | 19.5 µM (inactive) | 39.1 µM (inactive) | > 100 µM (inactive) | 18 µM (inactive) | 64.3 µM (inactive) | > 100 µM (inactive) |  | 38.1 µM (inactive) | 82.2 µM (inactive) | 66.8 µM (inactive) | 61.2 µM (inactive) | 45.6 µM (inactive) | > 100 µM (inactive) | > 100 µM (inactive) | 71.4 µM (inactive) | 51.1 µM (inactive)
Clc1cc2nc(C3CCCCO3)[nH]c2cc1Cl (configuration not stated) | 15.1 µM (inactive) | 18.6 µM (inactive) | > 100 µM (inactive) | 35.3 µM (inactive) | 6.03 µM (inactive) | 26 µM (inactive) | 15.9 µM (inactive) | 4.78 µM (inactive) | 48.1 µM (inactive) | > 60.3 µM (inactive) |  | 6.47 µM (inactive) | 54.8 µM (inactive) | 34.3 µM (inactive) | 38.6 µM (inactive) | 35.7 µM (inactive) | 34.3 µM (inactive) | 7.29 µM (inactive) | 4.1 µM (inactive) | 11.1 µM (inactive)
CC1=C(c2nc3ccccc3s2)C(=O)OC1(C)C | > 100 µM (inactive) | > 100 µM (inactive) | > 100 µM (inactive) | > 100 µM (inactive) | > 100 µM (inactive) | > 100 µM (inactive) | > 100 µM (inactive) |  | > 100 µM (inactive) | > 100 µM (inactive) | > 100 µM (inactive) | > 100 µM (inactive) | > 100 µM (inactive) | > 100 µM (inactive) | > 100 µM (inactive) |  |  |  |  | 
O=C(O)c1cccc(S(=O)(=O)NN2C(=O)CSC2c2ccccc2Cl)c1 (configuration not stated) | > 100 µM (inactive) | > 100 µM (inactive) | > 100 µM (inactive) | > 100 µM (inactive) | > 100 µM (inactive) | > 100 µM (inactive) | > 100 µM (inactive) | > 100 µM (inactive) | > 100 µM (inactive) | > 100 µM (inactive) |  | > 100 µM (inactive) | > 100 µM (inactive) | > 100 µM (inactive) | > 100 µM (inactive) | > 100 µM (inactive) | > 100 µM (inactive) | > 100 µM (inactive) | > 100 µM (inactive) | > 100 µM (inactive)

From ChEMBL document CHEMBL1201862, “PubChem BioAssay data set” (2004)
